Laboratory results published in patent US20030114385A1, “Viral enzyme activated prototoxophores and use of same to treat viral infections” (priority 2001, published 2003).
Several values for one entry are separate records, joined by “and”; a condition that tells them apart may be missing. Equal values may be shown once. Read-outs that look alike come from different tables or passages of the source. Square brackets hold non-standard residues; d marks the D form. Peptide text beside a SMILES is read from it. * marks the point of attachment. NH(4-NH2-anthraquinon-1-yl) = Nc1ccc(N*)c2c1C(=O)c1ccccc1C2=O; Cha = N[C@@H](CC1CCCCC1)C(=O)O; Abu = CC[C@H](N)C(=O)O

Columns and labels:
Format in all cases: cell-based, human
[1] = system: Det551 (skin fibroblasts)
Method: (§1) IC50 values of various potential HCV ECTA compounds (5761-5768) were determined using CCD 18co (normal colon epithelial cells), Det551 (skin fibroblasts), MCF7TDX (Tomudex resistant breast carcinoma cell line), HepG2 and Hep3B (hepatocellular carcinoma cell lines). Compound 5759 mimics the “released toxin” and serves as a positive control. IC50=the concentration of HCV ECTA compound that inhibits cellular growth by 50%.
(§2) Normal human colon epithelial cells (CCD18co), skin fibroblasts (Det551) Hepatocellular carcinoma cell lines (Hep3B and HepG2), breast cancer cell line (MCF7) and fibrosarcoma cell line (HT1080) were all purchased from the American Type Culture Collection (ATCC; Rockville Md.). MCF7TDX, human breast carcinoma cells resistant to 2 μM Tomudex™ have been described (ref. 98). Cells were cultured at 37° C. in 95% humidified air/5% CO2 in RPMI 1640 culture medium containing 10% fetal calf serum (Life Technologies) and penicillin/streptomycin/fungizone. MCF7TDX cells were maintained continuously in 2 μM Tomudex™. Normal cells were passaged a maximum of 15 times to avoid senescence.
(§3) The cytotoxic activity of various candidate prototoxophores was assessed by determining the IC50 value (concentration that inhibits cellular growth by 50%) in cellular proliferation assays and compared with the results obtained using the 5759 toxophore. Exponentially growing cells were transferred at a density of 1000 to 5500 cells per well to a 96 well tissue culture plate and allowed to attach for 24 hr. HCV ECTA compounds were applied in duplicate half log serial dilutions. After an additional 72 hr incubation, surviving adherent cells were washed once with PBS and stained with 0.5% crystal violet in methanol. Sorenson's buffer (0.025 M sodium citrate, 0.025 M citric acid in 50% ethanol) was added to each well and absorbance at 540 nm was monitored (absorbance at 540 nm correlates with cell survival; see refs. 103 to 105). Semi-adherent or non-adherent cells were stained with CYQUANT stain according to the protocol provided with the cell proliferation assay kit (C-7026; Molecular Probes; Eugene Oreg.). Fluorescence (485 nm excitation, 535 nm emission) was monitored. IC50 values were derived from sigmoid curves fit according to the Hill inhibitory Emax model (ref. 106).
(§4) Det551 or MCF7TDX cells were treated with compounds 5759, 5761, 5763 and 5767 for 2, 6, 12, 24 and 72 hours. After the indicated times the compounds were removed, the cells were washed, incubated for a total of 72 hours and IC50 values were determined. IC50=the concentration of HCV ECTA compound that inhibits cellular growth by 50%.
(§5) Cells were treated with compounds 5759, 5762 or 5763 for 15 hours. After removal of the compounds, the cells were washed, incubated for a total of 72 hours and IC50 values were determined. IC50=the concentration of HCV ECTA compound that inhibits cellular growth by 50%.

[2] = system: MCF7TDX (Tomudex resistant breast carcinoma cell line)
Method: as §1, §2, §3, §4, §5

[3] = system: CCD18co (normal colon epithelial cells)
Method: as §1, §2, §3, §5

[4] = system: HepG2 (hepatocellular carcinoma cell line)
Method: as §1, §2, §3, §5

[5] = system: Hep3B (hepatocellular carcinoma cell line)
Method: as §1, §2, §3, §5

[6] = Det551, 2 h exposure, washed, total 72 hours, read-out: IC50 after various times of drug exposure
[7] = Det551, 6 h exposure, washed, total 72 hours, read-out: IC50 after various times of drug exposure
[8] = Det551, 12 h exposure, washed, total 72 hours, read-out: IC50 after various times of drug exposure
[9] = MCF7/TDX, 2 h exposure, washed, total 72 hours, read-out: IC50 after various times of drug exposure
[10] = MCF7/TDX, 6 h exposure, washed, total 72 hours, read-out: IC50 after various times of drug exposure
[11] = MCF7/TDX, 12 h exposure, washed, total 72 hours, read-out: IC50 after various times of drug exposure
[12] = MCF7/TDX, 24 h exposure, washed, total 72 hours, read-out: IC50 after various times of drug exposure
[13] = MCF7/TDX, 72 h exposure, read-out: IC50 after various times of drug exposure
[14] = 72 hr incubation, read-out: IC50 (concentration that inhibits cellular growth by 50%)
[15] = HepG2, 72 hr incubation, read-out: IC50 (concentration that inhibits cellular growth by 50%)
[16] = Det551, 15 hours exposure, washed, total 72 hours, read-out: IC50 after 15 hour of drug exposure
[17] = MCF7TDX, 15 hours exposure, washed, total 72 hours, read-out: IC50 after 15 hour of drug exposure
[18] = 15 hours exposure, washed, total 72 hours, read-out: IC50 after 15 hour of drug exposure
[19] = HepG2, 15 hours exposure, washed, total 72 hours, read-out: IC50 after 15 hour of drug exposure
[20] = Det551, 24 h exposure, washed, total 72 hours, read-out: IC50 after various times of drug exposure
[21] = Det551, 72 h exposure, read-out: IC50 after various times of drug exposure
[22] = Det551, 72 hr incubation, read-out: IC50 (concentration that inhibits cellular growth by 50%)
[23] = MCF7TDX, 72 hr incubation, read-out: IC50 (concentration that inhibits cellular growth by 50%)

Structure (SMILES)	IC50 [1, 6] [µM]	IC50 [1, 7]	IC50 [1, 8]	IC50 [2, 9] [µM]	IC50 [2, 10] [µM]	IC50 [2, 11] [µM]	IC50 [2, 12] [µM]	IC50 [2, 13] [µM]	IC50 [3, 14]	IC50 [4, 15]	IC50 [1, 16] [µM]	IC50 [2, 17] [µM]	IC50 [3, 18] [µM]	IC50 [5, 18] [µM]	IC50 [4, 19] [µM]	IC50 [1, 20] [µM]	IC50 [1, 21] [µM]	IC50 [1, 22]	IC50 [2, 23] [µM]	IC50 [5, 14]
CC(=O)N[C@@H](CC(=O)O)C(=O)N[C@@H](CCC(=O)O)C(=O)N[C@H](C(=O)N[C@H](C(=O)N1CCC[C@H]1C(=O)N[C@@H](CS)C(=O)N[C@@H](CO)C(=O)NCC(=O)NCC(=O)Nc1ccc(N)c2c1C(=O)c1ccccc1C2=O)C(C)C)C(C)C [Compound 5761, Acetyl-Asp-Glu-Val-Val-Pro-Cys-Ser-Gly-Gly-toxin] (Ac-DEVVPCSGG-{NH(4-NH2-anthraquinon-1-yl)})	> 150	> 150 µM and 126 µM	> 150 µM and 88 µM	> 150	> 150	89	28	5	24.4 µM	51.1 µM	–	–	–	–	–	–	–	–	–	–
CC(=O)N[C@@H](CC(=O)O)C(=O)N[C@@H](CCC(=O)O)C(=O)N[C@@H](C)C(=O)N[C@H](C(=O)N[C@@H](CC(C)C)C(=O)N[C@@H](CS)C(=O)N[C@@H](CO)C(=O)NCC(=O)NCC(=O)Nc1ccc(N)c2c1C(=O)c1ccccc1C2=O)C(C)C [Compound 5762, Acetyl-Asp-Glu-Ala-Val-Leu-Cys-Ser-Gly-Gly-toxin] (Ac-DEAVLCSGG-{NH(4-NH2-anthraquinon-1-yl)})	–	–	–	–	–	–	–	–	–	–	46	132	77	> 150	> 150	–	–	–	–	–
CC(=O)N[C@@H](CC(=O)O)C(=O)N[C@@H](CCC(=O)O)C(=O)N[C@H](C(=O)N[C@H](C(=O)N1CCC[C@H]1C(=O)N[C@@H](CS)C(=O)N[C@@H](CO)C(=O)NCC(=O)NCC(=O)Nc1ccc(N)c2c1C(=O)c1ccccc1C2=O)[C@@H](C)O)C(C)C [Compound 5763, Acetyl-Asp-Glu-Val-Thr-Pro-Cys-Ser-Gly-Gly-toxin] (Ac-DEVTPCSGG-{NH(4-NH2-anthraquinon-1-yl)})	> 150	120 µM	84 µM	> 150	> 150	116	32	7	–	–	131	146	112	> 150	> 150	48	17	17 µM	6	–
CC(=O)N[C@@H](CC(=O)O)C(=O)N[C@@H](CCC(=O)O)C(=O)N1CCC[C@H]1C(=O)N[C@@H](CC(C)C)C(=O)N[C@@H](C)C(=O)N[C@@H](CS)C(=O)N[C@@H](CO)C(=O)NCC(=O)NCC(=O)Nc1ccc(N)c2c1C(=O)c1ccccc1C2=O [Compound 5765, Acetyl-Asp-Glu-Pro-Leu-Ala-Cys-Ser-Gly-Gly-toxin] (Ac-DEPLACSGG-{NH(4-NH2-anthraquinon-1-yl)})	–	–	–	–	–	–	–	–	28 µM and 33 µM and 38 µM	18 µM and 21 µM	–	–	–	–	–	–	–	15 µM and 16 µM	–	25 µM and 26 µM
CC[C@H](NC(=O)[C@H](CC1CCCCC1)NC(=O)[C@H](CCC(=O)O)NC(=O)[C@H](Cc1ccccc1)NC(=O)[C@H](CCC(=O)O)NC(=O)[C@H](CC(=O)O)NC(C)=O)C(=O)N[C@@H](CO)C(=O)NCC(=O)NCC(=O)Nc1ccc(N)c2c1C(=O)c1ccccc1C2=O [Compound 5766, Acetyl-Asp-Glu-Phe-Glu-Cha-ABA-Ser-Gly-Gly-toxin] (Ac-DEFE[Cha][Abu]SGG-{NH(4-NH2-anthraquinon-1-yl)})	–	–	–	–	–	–	–	–	10.2 µM	24.5 µM	–	–	–	–	–	–	–	5.3 µM	8.5	–
CC[C@H](NC(=O)[C@H](CC(C)C)NC(=O)[C@@H](NC(=O)[C@H](C)NC(=O)[C@H](CCC(=O)O)NC(=O)[C@H](CC(=O)O)NC(C)=O)C(C)C)C(=O)N[C@@H](CO)C(=O)NCC(=O)NCC(=O)Nc1ccc(N)c2c1C(=O)c1ccccc1C2=O [Compound 5767, Acetyl-Asp-Glu-Ala-Val-Leu-ABA-Ser-Gly-Gly-toxin] (Ac-DEAVL[Abu]SGG-{NH(4-NH2-anthraquinon-1-yl)})	> 150	13 µM	11 µM	–	–	–	–	–	13.2 µM	13.8 µM	–	–	–	–	–	11	8	5.1 µM and 8 µM	8	–
CC[C@H](NC(=O)[C@@H]1CCCN1C(=O)[C@@H](NC(=O)[C@@H](NC(=O)[C@H](CCC(=O)O)NC(=O)[C@H](CC(=O)O)NC(C)=O)C(C)C)[C@@H](C)O)C(=O)N[C@@H](CO)C(=O)NCC(=O)NCC(=O)Nc1ccc(N)c2c1C(=O)c1ccccc1C2=O [Compound 5768, Acetyl-Asp-Glu-Val-Tbr-Pro-ABA-Ser-Gly-Gly-toxin] (Ac-DEVTP[Abu]SGG-{NH(4-NH2-anthraquinon-1-yl)})	–	–	–	–	–	–	–	–	32 µM	24 µM	–	–	–	–	–	–	–	–	14	–
